Laboratory results from patent publication US11413278B2, “Compounds and methods for promoting stress resistance” (priority 2015, dated 2022).
Like-named read-outs stand apart in the source and are kept apart here.

How the values were obtained:
WI-38 cells = settings: no H2O2 stress, 10 uM; negative control 0.41% ± 0.23%
Method: WI-38 cells were seeded on 384-well plates for 24 hrs and then incubated with small molecules for 24 hrs. […] Images were collected on an INCell Analyzer 2000 (GE) and analyzed with the Developer software.

C. elegans = C. elegans lifespan assays (liquid and plate); format: in vivo, Caenorhabditis elegans; settings: for ILS at 60 µM / ILS at 66 µM: Caenorhabditis elegans; for O = Life span- extending scores in worms: score scale 0 to 2, 4 to 6 independent trials; for M = Lifespan-extending scores in worms: summary score
FOXO3 = test: qPCR analysis of FOXO3-regulated genes; format: cell-based, human; settings: for fold induction at 10 µM: Homo sapiens; for K = Sestrin induction: score
How it was run: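 WI-38 cells treated with compound at 10 μM for 24 h, followed by Cells-to-Ct RT-qPCR of FOXO3 target genes normalised to B2M, PPIA and GAPDH. FOXO3 or NRF2 dependence tested by prior 10 nM siRNA knockdown (36 h transfection, compound added ~24 h after replating).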

human PARP1 = target: T1, human PARP1 (Homo sapiens, UniProt P09874); test: PARP inhibitor assay (HT Fluorescent Homogeneous PARP Inhibition Assay Kit); format: biochemical; settings: for L = PARP inhibition: score
T1 construct: purchased Trevigen
How it was run: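 Human PARP1 with NAD and activated DNA, compounds at 10 μM final, 30 min at room temperature in dark. Resazurin/diaphorase cycling mix then added for 1 hr in dark before stop buffer; fluorescent homogeneous kit read-out.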

NRF2 = test: qPCR analysis of NRF2-regulated genes; format: cell-based, human; settings: for Potential NRF2 Activation (>=2 target genes induced, by >=1.5-fold): Assay 13(p); for fold induction at 10 µM: Homo sapiens
How it was run: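 WI-38 cells treated with compound at 10 μM for 24 hrs, then processed by Cells-to-Ct for RNA isolation, RT and qPCR of NRF2-regulated genes (HMOX1, NQO1, GCLC, GSTM1). Expression normalized to B2M, PPIA and GAPDH; siRNA knockdown of FOXO3 or NRF2 (10 nM) preceded treatment in some runs.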

[1] = in liquid, wild type, with FuDR, 1.0 × 10^9 bacteria/ml, read-out: relative change of mean lifespan vs control, Trial 1
[2] = in liquid, wild type, with FuDR, 2.5 × 10^9 bacteria/ml, read-out: relative change of mean lifespan vs control, Trial 2
[3] = on plate, CF512 temperature-sensitive sterile animals, without FuDR, 2.0 × 10^10 bacteria/ml, read-out: relative change of mean lifespan vs control, Trial 3
[4] = Assay 2(z), 1.0 × 10^9 bacteria/ml, wild type + FuDR (2012 July), read-out: Lifespan assay in liquid
[5] = Assay 3(aa), 2.5 × 10^9 bacteria/ml, wild type + FuDR, read-out: Lifespan assay in liquid
[6] = Assay 4(ab), 2.0 × 10^10 bacteria/ml, CF512 worms, no FuDR, read-out: Lifespan assay on plates
[7] = WI-38 cells, 10 μM, 24 hrs, n=4, qPCR normalized by B2M, read-out: DDB1 Normalized fold change
[8] = WI-38 cells, 10 μM, 24 hrs, n=4, qPCR normalized by B2M, read-out: GADD45A Normalized fold change
[9] = WI-38 cells, 10 μM, 24 hrs, n=4, qPCR normalized by B2M, read-out: SESN1 Normalized fold change
[10] = qPCR, WI-38 cells, 10 μM, n=4, 24 hrs, normalized by B2M, read-out: CAT Normalized fold change
[11] = qPCR, WI-38 cells, 10 μM, n=4, 24 hrs, normalized by B2M, read-out: SOD2 Normalized fold change
[12] = qPCR, WI-38 cells, 10 μM, n=4, 24 hrs, normalized by B2M, read-out: TXNIP Normalized fold change
[13] = 24 h, Assay 12(o), at 10 uM, qPCR, read-out: Induction of NRF2-regulated genes: HMOX1 normalized fold-change
[14] = 24 h, Assay 12(o), at 10 uM, qPCR, read-out: Induction of NRF2-regulated genes: NQO1 normalized fold-change
[15] = rounded fold change, WI-38 cells, 10 μM, 24 hrs (RP11 for Gr-1D, RP29 for Gr-4D), read-out: Summary of effects on NRF2-regulated genes: HMOX1
[16] = rounded fold change, WI-38 cells, 10 μM, 24 hrs (RP29 for Gr-4D), read-out: Summary of effects on NRF2-regulated genes: NQO1
[17] = 10 μM, 24 hrs, WI-38, read-out: Expression of at least two NRF2 target genes
[18] = 10 μM, 24 hrs, WI-38 cells, qPCR, normalized to B2M, n = 4, read-out: HMOX1 expression, normalized fold change (NRF2-regulated gene)
[19] = 10 μM, 24 hrs, WI-38 cells, qPCR, normalized to B2M, n = 4, read-out: NQO1 expression, normalized fold change (NRF2-regulated gene)
[20] = WI-38 cells, 10 μM, 24 hrs, n=4, qPCR normalized by B2M, read-out: GCLC Normalized fold change
[21] = WI-38 cells, 10 μM, 24 hrs, n=4, qPCR normalized by B2M, read-out: GSTM1 Normalized fold change
[22] = WI-38 cells, 10 μM, 24 hrs, n=4, qPCR normalized by B2M, read-out: HMOX1 Normalized fold change
[23] = WI-38 cells, 10 μM, 24 hrs, n=4, qPCR normalized by B2M, read-out: NQO1 Normalized fold change

T1 sequence (P09874 whole entry): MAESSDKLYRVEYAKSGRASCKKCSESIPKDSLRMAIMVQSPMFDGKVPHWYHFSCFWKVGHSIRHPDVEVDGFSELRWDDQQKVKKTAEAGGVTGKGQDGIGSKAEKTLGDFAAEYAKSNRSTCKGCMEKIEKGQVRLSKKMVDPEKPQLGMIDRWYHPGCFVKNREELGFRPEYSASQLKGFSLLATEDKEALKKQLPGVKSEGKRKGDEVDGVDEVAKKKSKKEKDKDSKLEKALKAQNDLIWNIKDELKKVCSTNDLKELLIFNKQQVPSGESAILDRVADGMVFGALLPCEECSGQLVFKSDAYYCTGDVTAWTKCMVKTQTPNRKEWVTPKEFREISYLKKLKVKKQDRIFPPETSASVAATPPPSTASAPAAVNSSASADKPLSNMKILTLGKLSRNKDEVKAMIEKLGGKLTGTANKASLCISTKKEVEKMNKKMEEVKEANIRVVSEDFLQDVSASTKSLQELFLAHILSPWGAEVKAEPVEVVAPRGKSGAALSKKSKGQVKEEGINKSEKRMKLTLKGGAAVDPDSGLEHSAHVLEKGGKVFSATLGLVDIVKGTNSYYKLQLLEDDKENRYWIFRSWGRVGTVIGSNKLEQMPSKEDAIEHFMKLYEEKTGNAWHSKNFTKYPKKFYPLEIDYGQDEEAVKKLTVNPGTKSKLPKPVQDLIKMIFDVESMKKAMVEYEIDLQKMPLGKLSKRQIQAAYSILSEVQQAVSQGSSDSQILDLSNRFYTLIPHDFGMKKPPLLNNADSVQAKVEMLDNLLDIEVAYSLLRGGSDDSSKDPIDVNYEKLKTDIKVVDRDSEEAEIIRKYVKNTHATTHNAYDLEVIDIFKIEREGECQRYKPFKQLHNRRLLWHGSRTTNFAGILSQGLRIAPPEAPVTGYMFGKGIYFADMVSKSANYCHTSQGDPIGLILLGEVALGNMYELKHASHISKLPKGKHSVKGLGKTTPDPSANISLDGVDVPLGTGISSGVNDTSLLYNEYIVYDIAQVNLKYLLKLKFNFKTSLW

Compound | Percentage of propidium iodide-positive dead cells (no H2O2 stress treatment), at 10 uM (WI-38 cells) | ILS at 60 µM (C. elegans; [1]) [%] | ILS at 60 µM (C. elegans; [2]) [%] | ILS at 60 µM (C. elegans; [3]) [%] | ILS at 66 µM (C. elegans; [4]) [%] | ILS at 66 µM (C. elegans; [5]) [%] | ILS at 66 µM (C. elegans; [6]) [%] | O = Life span- extending scores in worms (C. elegans) | M = Lifespan-extending scores in worms (C. elegans) | E = Potential FOXO3 Activation (FOXO3; 2-point score) | fold induction at 10 µM (FOXO3; [7]) | fold induction at 10 µM (FOXO3; [8]) | fold induction at 10 µM (FOXO3; [9]) | fold induction at 10 µM (FOXO3; [10]) | fold induction at 10 µM (FOXO3; [11]) | fold induction at 10 µM (FOXO3; [12]) | K = Sestrin induction (FOXO3) | E = Potential FOXO3 Activation (FOXO3; summary score) | L = PARP inhibition (human PARP1) | F = Potential NRF2 Activation (NRF2; 2-point score) | also measured
CCc1ccc(Oc2nc3ccccn3c(=O)c2/C=C(\C#N)C(=O)NC2CCCCC2)cc1 [Gr-5A] | 0.48% ± 0.20%, | 25.8 | -1.4 | -8.3 | 25.8 | -1.4 | -8.3 | 0 | 0 | 0 | 1.2 | 0.841 | 1.38 | 1.17 | 1.12 | 1.14 | 0 | 0 | 0 | 2 | Potential NRF2 Activation (>=2 target genes induced, by >=1.5-fold) (NRF2): YES; fold induction at 10 µM (NRF2; [13]): 2.06; fold induction at 10 µM (NRF2; [14]): 1.55; fold induction at 10 µM (NRF2; [15]): 2.06; fold induction at 10 µM (NRF2; [16]): 1.55; fold induction at 10 µM (NRF2; [17]): > 1.5; fold induction at 10 µM (NRF2; [18]): 2.06; fold induction at 10 µM (NRF2; [19]): 1.55; fold induction at 10 µM (NRF2; [20]): 0.919; fold induction at 10 µM (NRF2; [21]): 1.15; fold induction at 10 µM (NRF2; [22]): 2.06; fold induction at 10 µM (NRF2; [23]): 1.55; F = Potential NRF2 Activation (NRF2; summary score): 2
CCc1ccc(Oc2nc3ccccn3c(=O)c2/C=C(\C#N)C(=O)NCc2ccco2)cc1 [Gr-5B] | 0.45% ± 0.15%, | 37.2 | 2 | 1.7 | 37.2 | 2 | 1.7 | 0 | 0 | 0 | 1.25 | 0.808 | 1.36 | 1.42 | 1.13 | 1.2 | 0 | 0 | 0 | 2 | Potential NRF2 Activation (>=2 target genes induced, by >=1.5-fold) (NRF2): YES; fold induction at 10 µM (NRF2; 24 h, Assay 12(o), at 10 uM, qPCR, read-out: Induction of NRF2-regulated genes: GSTM1 normalized fold-change): 1.27; fold induction at 10 µM (NRF2; [13]): 1.73; fold induction at 10 µM (NRF2; [14]): 1.94; fold induction at 10 µM (NRF2; [15]): 1.73; fold induction at 10 µM (NRF2; rounded fold change, WI-38 cells, 10 μM, 24 hrs (RP29 for Gr-4D), read-out: Summary of effects on NRF2-regulated genes: GSTM1): 1.27; fold induction at 10 µM (NRF2; [16]): 1.94; fold induction at 10 µM (NRF2; [17]): > 1.5; fold induction at 10 µM (NRF2; 10 μM, 24 hrs, WI-38 cells, qPCR, normalized to B2M, n = 4, read-out: GSTM1 expression, normalized fold change (NRF2-regulated gene)): 1.27; fold induction at 10 µM (NRF2; [18]): 1.73; fold induction at 10 µM (NRF2; [19]): 1.94; fold induction at 10 µM (NRF2; [20]): 1.15; fold induction at 10 µM (NRF2; [21]): 1.27; fold induction at 10 µM (NRF2; [22]): 1.73; fold induction at 10 µM (NRF2; [23]): 1.94; F = Potential NRF2 Activation (NRF2; summary score): 2
CNC(=O)/C(C#N)=C/c1c(Oc2ccc(C(C)(C)C)cc2)nc2ccccn2c1=O [Gr-5D] | 0.51% ± 0.18%, | 29.5 | 5.8 | -5.3 | 29.5 | 5.8 | -5.3 | 0 | 0 | 0 | 0.984 | 0.698 | 1.1 | 1.27 | 1.12 | 0.669 | 0 | 0 | 0 | 2 | fold induction at 10 µM (FOXO3; 10 μM, 24 hrs, WI-38 cells, qPCR, normalized to B2M, n = 4, read-out: TXNIP expression, normalized fold change (FOXO3-regulated gene)): 0.67; fold induction at 10 µM (FOXO3; fold change, qPCR, WI-38 cells, 10 μM, 24 hrs, read-out: Summary of effects on FOXO3-regulated genes: TXNIP): 0.67; TXNIP expression, normalized fold change (printed in the column of NRF2-regulated genes) (NRF2; 10 μM, 24 hrs, WI-38 cells, qPCR, normalized to B2M, n = 4): TXNIP 0.67, fold; Induction of NRF2-regulated genes: TXNIP normalized fold-change (NRF2; Assay 12(o), at 10 uM, qPCR): TXNIP 0.67, fold-change; Potential NRF2 Activation (>=2 target genes induced, by >=1.5-fold) (NRF2): YES; fold induction at 10 µM (NRF2; [13]): 2.49; fold induction at 10 µM (NRF2; [14]): 1.78; fold induction at 10 µM (NRF2; [15]): 2.49; fold induction at 10 µM (NRF2; [16]): 1.78; fold induction at 10 µM (NRF2; [17]): > 1.5; fold induction at 10 µM (NRF2; [18]): 2.49; fold induction at 10 µM (NRF2; [19]): 1.78; fold induction at 10 µM (NRF2; [20]): 0.886; fold induction at 10 µM (NRF2; [21]): 1.17; fold induction at 10 µM (NRF2; [22]): 2.49; fold induction at 10 µM (NRF2; [23]): 1.78; Summary of effects on NRF2-regulated genes: TXNIP (NRF2; fold change, WI-38 cells, 10 μM, 24 hrs): 0.67,; F = Potential NRF2 Activation (NRF2; summary score): 2
Cc1cc(N)n(-c2ccccc2C(=O)O)n1 [Gr-6A] | 0.41% ± 0.17%, | 5.5 | 6.8 | 16.9 | 5.5 | 6.8 | 16.9 | 0 | 0 | 0 | 1.05 | 0.787 | 1.18 | 1.2 | 0.868 | 1.14 | 0 | 0 | 1 | 0 | ILS at 60 µM (C. elegans; on plate, CF512 temperature-sensitive sterile animals, without FuDR, 1.0 × 10^11 bacteria/ml, read-out: relative change of mean lifespan vs control, Trial 4): -2.7%; ILS at 66 µM (C. elegans; Assay 5(ac), 1.0 × 10^11 bacteria/ml, CF512 worms, no FuDR, read-out: Lifespan assay on plates): -2.7%; fold induction at 10 µM (FOXO3; 24 h, Assay 10(m), at 10 uM, qPCR, read-out: Induction of FOXO3-regulated genes: GADD45A normalized fold-change): 0.79; fold induction at 10 µM (FOXO3; 10 μM, 24 hrs, WI-38 cells, qPCR, normalized to B2M, n = 4, read-out: GADD45A expression, normalized fold change (FOXO3-regulated gene)): 0.79; fold induction at 10 µM (FOXO3; fold change, qPCR, WI-38 cells, 10 μM, 24 hrs, read-out: Summary of effects on FOXO3-regulated genes: GADD45A): 0.79; Inhibition of PARP1 (human PARP1; 10 μM, in vitro): inhibitors of PARP1; fold induction at 10 µM (NRF2; [20]): 1.03; fold induction at 10 µM (NRF2; [21]): 1.09; fold induction at 10 µM (NRF2; [22]): 1.1; fold induction at 10 µM (NRF2; [23]): 1.02; F = Potential NRF2 Activation (NRF2; summary score): 0
